Some results are limits rather than exact numbers.

SUV420H1 enzyme, sequence (Q4FZB7 whole entry): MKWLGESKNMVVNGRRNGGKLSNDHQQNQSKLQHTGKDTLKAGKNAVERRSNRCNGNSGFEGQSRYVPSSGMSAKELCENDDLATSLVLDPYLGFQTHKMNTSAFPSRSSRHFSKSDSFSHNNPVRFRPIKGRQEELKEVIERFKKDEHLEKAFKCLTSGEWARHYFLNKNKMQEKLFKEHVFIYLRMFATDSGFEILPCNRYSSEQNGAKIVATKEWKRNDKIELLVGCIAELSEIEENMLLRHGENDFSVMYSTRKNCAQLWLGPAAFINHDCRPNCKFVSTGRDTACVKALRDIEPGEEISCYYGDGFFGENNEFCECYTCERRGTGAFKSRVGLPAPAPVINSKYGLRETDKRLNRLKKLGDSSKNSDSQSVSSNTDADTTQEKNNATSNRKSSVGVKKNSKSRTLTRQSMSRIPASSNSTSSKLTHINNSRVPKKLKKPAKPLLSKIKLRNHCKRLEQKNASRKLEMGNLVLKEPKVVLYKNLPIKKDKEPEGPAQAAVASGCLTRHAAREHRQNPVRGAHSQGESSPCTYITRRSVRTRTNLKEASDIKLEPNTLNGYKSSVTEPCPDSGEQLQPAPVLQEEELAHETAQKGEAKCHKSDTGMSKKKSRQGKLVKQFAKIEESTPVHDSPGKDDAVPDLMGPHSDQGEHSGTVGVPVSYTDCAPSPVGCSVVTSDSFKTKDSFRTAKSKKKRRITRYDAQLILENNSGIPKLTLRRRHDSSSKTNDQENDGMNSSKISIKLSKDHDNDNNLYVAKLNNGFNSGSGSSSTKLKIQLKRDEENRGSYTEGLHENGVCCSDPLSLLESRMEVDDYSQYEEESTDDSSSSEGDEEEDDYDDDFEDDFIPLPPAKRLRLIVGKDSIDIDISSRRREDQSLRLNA

The assay has as its target SUV420H1 enzyme (Homo sapiens, UniProt Q4FZB7). Put plainly: TR-FRET SAH SUV420H1 enzyme inhibition assay. Type of assay: biochemical. Conditions: Histone Peptide H4(8-30)me1 and SAM, overnight at room temp, TR-FRET detection of SAH, read-out: TR-FRET SAH_SUV420H1 IC50. The gist of the method:
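SUV420H1 (90 nM) preincubated 30 min with compound (3-fold dilutions, 50 to 0.00075 μM), then H4(8-30)me1 peptide 5 nM and SAM 4 nM added, overnight at room temp. SAH product detected by TR-FRET with Tb anti-SAH antibody and Oregon Green-SAH in RIPA buffer, 4 h; IC50 from Hill fit, asymptotes fixed 0-100%.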
Take `Nc1ncnc2c1ncn2Cc1cc(Cl)cc2cc(CNC(=O)c3c(O)cccc3F)[nH]c12` [Example 229, N-({7-[(6-amino-9H-purin-9-yl)methyl]-5-chloro-1H-indol-2-yl}methyl)-2-fluoro-6-hydroxybenzamide]: the IC50 was above 50 µM.

Consider `CNC(=O)CCc1c[nH]c2c(Cn3cnc4c(N)ncnc43)cccc12` [Example 2, 3-{7-[(6-amino-9H-purin-9-yl)methyl]-1H-indol-3-yl}-N-methylpropanamide], for which the half-inhibitory concentration (IC50) was found to be 36.9 µM.

As for `Nc1ncnc2c1ncn2Cc1cc(Cl)cc2cc(CNCc3cc(F)cc(Cl)c3)[nH]c12` [Example 216, 9-[(5-chloro-2-{[(3-chloro-5-fluorobenzyl)amino]methyl}-1H-indol-7-yl)methyl]-9H-purin-6-amine], the half-maximal inhibitory concentration (IC50) is 2.47 µM.

For `Nc1ncnc2c1ncn2Cc1cc(Cl)cc2cc(CNC(=O)c3ccc4snnc4c3)[nH]c12` [Example 329, N-({7-[(6-amino-9H-purin-9-yl)methyl]-5-chloro-1H-indol-2-yl}methyl)-1,2,3-benzothiadiazole-5-carboxamide], the IC50 amounted to 0.41 µM.

Consider `CC(C)(C)OC(=O)N1CC=C(c2cc(Cn3cnc4c(N)ncnc43)c3[nH]c(CNC(=O)c4ccc(C#N)cc4F)cc3c2)CC1` [Example 289, tert-butyl 4-(7-[(6-amino-9H-purin-9-yl)methyl]-2-{[(4-cyano-2-fluorobenzoyl)amino]methyl}-1H-indol-5-yl)-3,6-dihydropyridine-1(2H)-carboxylate], for which the half-inhibitory concentration (IC50) stood at 0.0613 µM.

Take `NCc1cc2cc(C3=CCC(F)(F)CC3)cc(Cn3cnc4c(N)ncnc43)c2[nH]1` [Example 14, 9-{[2-(aminomethyl)-5-(4,4-difluorocyclohex-1-en-1-yl)-1H-indol-7-yl]methyl}-9H-purin-6-amine]: the IC50 was 0.186 µM.

With `N#Cc1cccc(-c2cc(Cn3cnc4c(N)ncnc43)c3[nH]c(CN)cc3c2)c1` [Example 39, 3-{2-(aminomethyl)-7-[(6-amino-9H-purin-9-yl)methyl]-1H-indol-5-yl}benzonitrile], the IC50 was 0.345 µM.

In the case of `Cc1cc(C#N)ccc1C(=O)NCc1cc2cc(C3=CCNCC3)cc(Cn3cnc4c(N)ncnc43)c2[nH]1` [Example 305, N-({7-[(6-amino-9H-purin-9-yl)methyl]-5-(1,2,3,6-tetrahydropyridin-4-yl)-1H-indol-2-yl}methyl)-4-cyano-2-methylbenzamide], the IC50 came out at 0.0367 µM.

On to `CC(=O)N1CCC=C(c2cc(Cn3cnc4c(N)ncnc43)c3[nH]c(CN)cc3c2)C1` [Example 16, 1-[5-{2-(aminomethyl)-7-[(6-amino-9H-purin-9-yl)methyl]-1H-indol-5-yl}-3,6-dihydropyridin-1(2H)-yl]ethanone], for which the IC50 is 0.44 µM.

Consider `Cc1ccsc1C(=O)NCc1cc2cc(Cl)cc(Cn3cnc4c(N)ncnc43)c2[nH]1` [Example 157, N-({7-[(6-amino-9H-purin-9-yl)methyl]-5-chloro-1H-indol-2-yl}methyl)-3-methylthiophene-2-carboxamide], for which the IC50 is 2.06 µM.

As to `Nc1ncnc2c1ncn2Cc1cc(Cl)cc2cc(CNCc3ccccc3Br)[nH]c12` [Example 208, 9-[(2-{[(2-bromobenzyl)amino]methyl}-5-chloro-1H-indol-7-yl)methyl]-9H-purin-6-amine], the IC50 was determined as 1.89 µM.

For `Nc1ncnc2c1ncn2Cc1cc(Cl)cc2cc(CNC(=O)c3ccc(F)cc3)[nH]c12` [Example 223, N-({7-[(6-amino-9H-purin-9-yl)methyl]-5-chloro-1H-indol-2-yl}methyl)-4-fluorobenzamide], the IC50 stood at 8.25 µM.

Take `Cc1cc(C(=O)NCc2cc3cc(Cl)cc(Cn4cnc5c(N)ncnc54)c3[nH]2)n(C)n1` [Example 183, N-({7-[(6-amino-9H-purin-9-yl)methyl]-5-chloro-1H-indol-2-yl}methyl)-1,3-dimethyl-1H-pyrazole-5-carboxamide]: the concentration for half-maximal inhibition (IC50) stood at 1.78 µM.

On to `Cc1onc(-c2ccccc2)c1C(=O)NCc1cc2cc(Cl)cc(Cn3cnc4c(N)ncnc43)c2[nH]1` [Example 326, N-({7-[(6-amino-9H-purin-9-yl)methyl]-5-chloro-1H-indol-2-yl}methyl)-5-methyl-3-phenyl-1,2-oxazole-4-carboxamide], for which the IC50 was 6.2 µM.

As for `CC(C)c1ccccc1C(=O)NCc1cc2cc(Cl)cc(Cn3cnc4c(N)ncnc43)c2[nH]1` [Example 314, N-({7-[(6-amino-9H-purin-9-yl)methyl]-5-chloro-1H-indol-2-yl}methyl)-2-(propan-2-yl)benzamide], the IC50 worked out at 1.93 µM.

As for `Nc1ncnc2c1ncn2Cc1cc(Cl)cc2cc(CNC(=O)CN3CCOCC3)[nH]c12` [Example 127, N-({7-[(6-amino-9H-purin-9-yl)methyl]-5-chloro-1H-indol-2-yl}methyl)-2-(morpholin-4-yl)acetamide], the half-maximal inhibitory concentration (IC50) worked out at 6 µM.

`Cc1sccc1C(=O)NCc1cc2cc(Cl)cc(Cn3cnc4c(N)ncnc43)c2[nH]1` [Example 156, N-({7-[(6-amino-9H-purin-9-yl)methyl]-5-chloro-1H-indol-2-yl}methyl)-2-methylthiophene-3-carboxamide]: the IC50 was 7.92 µM.

Turning to `CC1(C(=O)NCc2cc3cc(Cl)cc(Cn4cnc5c(N)ncnc54)c3[nH]2)CCCCC1` [Example 129, N-({7-[(6-amino-9H-purin-9-yl)methyl]-5-chloro-1H-indol-2-yl}methyl)-1-methylcyclohexanecarboxamide], the IC50 stood at 28.4 µM.

In the case of `CCn1nc(C)c(C(=O)NCc2cc3cc(Cl)cc(Cn4cnc5c(N)ncnc54)c3[nH]2)c1C` [Example 188, N-({7-[(6-amino-9H-purin-9-yl)methyl]-5-chloro-1H-indol-2-yl}methyl)-1-ethyl-3,5-dimethyl-1H-pyrazole-4-carboxamide], the IC50 was determined as 0.507 µM.

For `Nc1ncnc2c1ncn2Cc1cc(Cl)cc2cc(CNC(=O)c3ccc4[nH]ncc4c3F)[nH]c12` [Example 350, N-({7-[(6-amino-9H-purin-9-yl)methyl]-5-chloro-1H-indol-2-yl}methyl)-4-fluoro-1H-indazole-5-carboxamide], the IC50 came to 2.74 µM.

As for `Cc1cc2cc(C(=O)NCc3cc4cc(Cl)cc(Cn5cnc6c(N)ncnc65)c4[nH]3)ccc2o1` [Example 364, N-({7-[(6-amino-9H-purin-9-yl)methyl]-5-chloro-1H-indol-2-yl}methyl)-2-methyl-1-benzofuran-5-carboxamide], the IC50 was found to be 3.28 µM.

For `NCc1cc2c(-c3cccnc3)ccc(Cn3cnc4c(N)ncnc43)c2[nH]1` [Example 69, 9-{[2-(aminomethyl)-4-(pyridin-3-yl)-1H-indol-7-yl]methyl}-9H-purin-6-amine], the IC50 came to 0.663 µM.

As to `Nc1ncnc2c1ncn2Cc1cc(Cl)cc2cc(CNC(=O)c3ccc[nH]c3=O)[nH]c12` [Example 198, N-({7-[(6-amino-9H-purin-9-yl)methyl]-5-chloro-1H-indol-2-yl}methyl)-2-oxo-1,2-dihydropyridine-3-carboxamide], the IC50 stood at 12.6 µM.

With `Nc1ncnc2c1ncn2Cc1cc(Cl)cc2cc(CNC(=O)c3cccc(Cl)c3)[nH]c12` [Example 222, N-({7-[(6-amino-9H-purin-9-yl)methyl]-5-chloro-1H-indol-2-yl}methyl)-3-chlorobenzamide], the IC50 stood at 3.54 µM.

For the compound `Nc1ncnc2c1ncn2Cc1cc(Cl)cc2cc(CNC(=O)N3CCC(c4ccccc4F)C3)[nH]c12` (stereo not drawn) [Example 319, N-({7-[(6-amino-9H-purin-9-yl)methyl]-5-chloro-1H-indol-2-yl}methyl)-3-(2-fluorophenyl)pyrrolidine-1-carboxamide], the 50% inhibitory concentration (IC50) amounted to 3.39 µM.

As to `COc1ccc(C(=O)NCc2cc3cc(Cl)cc(Cn4cnc5c(N)ncnc54)c3[nH]2)cc1` [Example 258, N-({7-[(6-amino-9H-purin-9-yl)methyl]-5-chloro-1H-indol-2-yl}methyl)-4-methoxybenzamide], the IC50 is 4.58 µM.

As to `Nc1ncnc2c1ncn2Cc1cc(Cl)cc2cc(CNC(=O)c3cnsc3)[nH]c12` [Example 139, N-({7-[(6-amino-9H-purin-9-yl)methyl]-5-chloro-1H-indol-2-yl}methyl)-1,2-thiazole-4-carboxamide], the IC50 is 0.767 µM.

On to `Cc1ccccc1C(=O)NCc1cc2cc(Cl)cc(Cn3cnc4c(N)ncnc43)c2[nH]1` [Example 248, N-({7-[(6-amino-9H-purin-9-yl)methyl]-5-chloro-1H-indol-2-yl}methyl)-2-methylbenzamide], for which the half-inhibitory concentration (IC50) stood at 0.571 µM.

Take `Cc1ccc(-c2cc(Cn3cnc4c(N)ncnc43)c3[nH]c(CN)cc3c2)cc1` [Example 30, 9-{[2-(aminomethyl)-5-(4-methylphenyl)-1H-indol-7-yl]methyl}-9H-purin-6-amine]: the IC50 worked out at 1.17 µM.

For `CC(C)CC(=O)NCc1cc2cc(Cl)cc(Cn3cnc4c(N)ncnc43)c2[nH]1` [Example 102, N-({7-[(6-amino-9H-purin-9-yl)methyl]-5-chloro-1H-indol-2-yl}methyl)-3-methylbutanamide], the IC50 turned out to be 6.36 µM.

In the case of `Nc1ncnc2c1ncn2Cc1cc(Cl)cc2cc(CNC(=O)c3ccccc3OC3CCOCC3)[nH]c12` [Example 321, N-({7-[(6-amino-9H-purin-9-yl)methyl]-5-chloro-1H-indol-2-yl}methyl)-2-(tetrahydro-2H-pyran-4-yloxy)benzamide], the IC50 was 8.22 µM.

As to `Nc1ncnc2c1ncn2Cc1cc(Cl)cc2cc(CNC(=O)C3CC3)[nH]c12` [Example 107, N-({7-[(6-amino-9H-purin-9-yl)methyl]-5-chloro-1H-indol-2-yl}methyl)cyclopropanecarboxamide], the IC50 worked out at 10.9 µM.

As to `CC1CC1C(=O)NCc1cc2cc(Cl)cc(Cn3cnc4c(N)ncnc43)c2[nH]1` (stereo not drawn) [Example 109, N-({7-[(6-amino-9H-purin-9-yl)methyl]-5-chloro-1H-indol-2-yl}methyl)-2-methylcyclopropanecarboxamide], the half-maximal inhibitory concentration (IC50) was 10.6 µM.
